Tests used:
[1] = test system: MYOD1-positive urine-derived cells; assay: Promotion of myotube induction by low molecular compounds, myosin heavy chain immunocytochemistry; format: cell-based, human; conditions: compound added to differentiation medium with doxycycline; FIG. 3A 1 μM, FIG. 3B 10 μM
Experimental: (§1) The MYOD1-positive urine-derived cells were plated onto a collagen-coated culture dish or plate and cultured in a differentiation medium supplemented with doxycycline (e.g., 1 μg/ml) (the medium containing high-glucose-containing DMEM with GlutaMAX-I (Thermo Fisher Scientific; 10569-010), 5% horse serum, ITS Liquid Media Supplement (Sigma; 13146), and 1 μg/ml doxycycline) to induce the myotubes. Whether or not muscular differentiation could be promoted with the addition of a low molecular compound in a compound library (Sigma; S990043-EPI1) to the differentiation medium was examined. The low molecular compound was added at a final concentration of 0.1, 1, or 10 μM. Myotube induction was evaluated by immunocytochemistry and Western blotting.
For immunocytochemistry, cultured cells were washed in PBS, fixed in 4% paraformaldehyde, and then incubated with the addition of 0.1% Triton-X at room temperature for 10 minutes. The anti-myosin heavy chain antibody (1:50, R&D, Minneapolis, U.S.A.; MAB4470) and the anti-dystrophin antibody (1:30, Novocastra, Newcastle, UK; NCL-DYS1) were used as primary antibodies, and Alexa Fluor 546 goat anti-mouse IgG (H+L) (1:300, Invitrogen; A11003) was used as a secondary antibody. Nuclear staining was performed with the use of Hoechst 33342. An image was obtained using a fluorescence microscope (BZ-9000 or BZ-X800, KEYENCE, Osaka, Japan) and analyzed using the BZ-X Analyzer (KEYENCE).
As a result, it was founded that a degree of muscular differentiation evaluated in terms of the myosin heavy chain protein expression level by immunocytochemistry was enhanced to a significant extent with the addition of the epigenetic regulatory compound(s) to the differentiation medium (FIGS. 3 and 4). […] Also, effects of histone methyltransferase inhibitors (GSK343, SGC707, furamidine dihydrochloride, UNC2327, E7438, and MI-2 (menin-MLL inhibitor)), histone demethylase inhibitors (IOX 1 and GSK-J1), histone deacetylase (HDAC) inhibitors (VORINOSTAT, LMK-235, CAY10603, and BRD73954), SIRT2 inhibitor (SirReal 2), and PARP inhibitor (EB47) were observed. In FIG. 3, a horizontal axis represents a type of a compound added, and a vertical axis represents an area of a myosin heavy chain-positive region determined by immunocytochemistry. […] Statistical analysis was performed by a Kruskal-Wallis test at a significance level of p<0.05. “*,” “**,” and “***” indicate p<0.05, p<0.01, and p<0.001, respectively.

[2] = test system: myotubes induced from urine-derived cells obtained from 4 healthy subjects; assay: Promotion of myotube induction, Western blotting of myosin heavy chain and dystrophin; format: cell-based, human; conditions: in the presence of DZNep; urine-derived cells from 4 healthy subjects
Experimental: as §1
The effects of DZNep on promoting myotube induction were also examined by Western blotting. […] The total protein concentration was measured using the BCA protein assay kit (Thermo Fisher Scientific; 23227), denaturation was performed using NuPAGE® LDS Sample Buffer (Thermo Fisher Scientific; NP0007), SDS-PAGE was performed on 3% to 8% NuPAGE® Novex Tris-Acetate Gel (Invitrogen; EA03785BOX), and the resultant was transferred onto a PVDF membrane (Millipore, Billerica, Mass., U.S.A.; IPVH304F0). […] After the antibody reaction, a band of interest was detected using the ECL Prime Western Blotting Detection Reagent (GE Healthcare, UK; RPN2232). […]

Row | Compound | degree of muscular differentiation evaluated in terms of the myosin heavy chain protein expression level by immunocytochemistry [1] | dystrophin expression by Western blotting [2] | myosin heavy chain expression by Western blotting [2]
1 | CCN(c1cc(-c2ccc(CN3CCOCC3)cc2)cc(C(=O)NCc2c(C)cc(C)[nH]c2=O)c1C)C1CCOCC1 [E7438] | observed | – | –
2 | O=C(NCC(=O)N1CCCC1)Nc1ccc2cnccc2c1 [SGC707] | observed | – | –
3 | Cl.Nc1nccc2c1ncn2[C@@H]1C=C(CO)[C@@H](O)[C@H]1O [DZNep, 3-deazaneplanocin A hydrochloride] | high | expressed at high levels | expressed at high levels
4 | Cc1cc(C)nc(SCC(=O)Nc2ncc(Cc3cccc4ccccc34)s2)n1 [SirReal 2] | observed | – | –
5 | UNC2327 | observed | – | –
6 | CCCc1cc2c(N3CCN(C4=NCC(C)(C)S4)CC3)ncnc2s1 [MI-2 (menin-MLL inhibitor)] | observed | – | –
7 | O=C(CCCCCCC(=O)Nc1ccccc1)NO [VORINOSTAT] | observed | – | –
8 | CCCc1cc(C)[nH]c(=O)c1CNC(=O)c1cc(-c2ccnc(N3CCN(C)CC3)c2)cc2c1cnn2C(C)C [GSK343] | observed | – | –
9 | O=C(NO)c1cccc(C(=O)NCCc2ccccc2)c1 [BRD73954] | observed | – | –
10 | Cl.Cl.Nc1ncnc2c1ncn2[C@@H]1O[C@H](C(=O)N2CCN(CC(=O)Nc3cccc4c3CNC4=O)CC2)[C@@H](O)[C@H]1O [EB47] | observed | – | –
11 | Cc1cc(C)cc(C(=O)NOCCCCCC(=O)NO)c1 [LMK-235] | observed | – | –
12 | O=C(O)c1ccc(O)c2ncccc12 [IOX 1] | observed | – | –
13 | CC(C)(C)OC(=O)Nc1ccc(-c2cc(C(=O)NCCCCCCC(=O)NO)no2)cc1 [CAY10603] | observed | – | –
14 | O=C(O)CCNc1cc(N2CCc3ccccc3CC2)nc(-c2ccccn2)n1 [GSK-J1] | observed | – | –
